Activity calls are given as the source filed them. No stated cut-off is given here; in the data, actives have a measured IC50 and inactives only a lower limit.

In the assay the target is Envelope glycoprotein gp160 (Human immunodeficiency virus 1, UniProt Q6QLK5). Nature of the assay: inhibitors of HIV fusion peptide binding, primary screen, biochemical, uHTS, fluorescence dequenching (AID 1986).
Envelope glycoprotein gp160, sequence (Q6QLK5 whole entry, the tested form may be a part): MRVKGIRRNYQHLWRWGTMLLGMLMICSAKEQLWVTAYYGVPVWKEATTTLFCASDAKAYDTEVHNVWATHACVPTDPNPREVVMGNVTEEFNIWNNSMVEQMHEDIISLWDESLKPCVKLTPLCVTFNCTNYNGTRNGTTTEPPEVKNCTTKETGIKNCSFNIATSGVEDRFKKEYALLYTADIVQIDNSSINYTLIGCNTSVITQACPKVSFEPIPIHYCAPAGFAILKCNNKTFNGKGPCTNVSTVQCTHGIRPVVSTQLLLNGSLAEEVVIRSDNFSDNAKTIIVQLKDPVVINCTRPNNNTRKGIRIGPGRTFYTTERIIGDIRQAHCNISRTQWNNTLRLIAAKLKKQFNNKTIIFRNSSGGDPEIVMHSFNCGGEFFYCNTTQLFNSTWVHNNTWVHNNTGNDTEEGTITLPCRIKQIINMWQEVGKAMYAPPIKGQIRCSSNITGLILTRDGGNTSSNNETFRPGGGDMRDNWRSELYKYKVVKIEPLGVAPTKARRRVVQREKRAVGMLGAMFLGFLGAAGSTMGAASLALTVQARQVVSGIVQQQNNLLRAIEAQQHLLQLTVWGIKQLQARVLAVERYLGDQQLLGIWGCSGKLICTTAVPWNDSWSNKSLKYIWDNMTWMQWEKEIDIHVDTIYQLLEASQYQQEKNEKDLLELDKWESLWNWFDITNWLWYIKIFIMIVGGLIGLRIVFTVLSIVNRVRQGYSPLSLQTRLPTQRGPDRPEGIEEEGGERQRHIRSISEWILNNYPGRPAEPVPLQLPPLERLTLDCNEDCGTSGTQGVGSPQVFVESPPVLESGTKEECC
As a reminder, the IC50 is the concentration at which inhibition is half-maximal. In the case of `COc1cc(/C=C2\SC(=S)NC2=O)ccc1OS(=O)(=O)c1ccccc1`, the IC50 was 18 µM (active).
In the case of `CCOc1ccc(NC(=NCc2ccc3c(c2)OCO3)SC2CC(=O)N(c3ccc(C(=O)O)cc3)C2=O)cc1` (stereo not drawn), the IC50 is 25.9 µM (active).
Regarding `CC(Oc1ccc(Cl)cc1Cl)C(=O)Nc1ccc(S(=O)(=O)Nc2cnc3ccccc3n2)cc1` (stereo not drawn), the IC50 was 15.7 µM (active).

Values taken from ChEMBL document CHEMBL1201862, “PubChem BioAssay data set” (2004).
